Values quoted from earlier work in patent US20200046831A1, “NANOEMULSION COMPRISING IMIDAZOQUINOLINE-BASED MATERIAL AND USE THEREOF” (DANDI BIOSCIENCE INC., priority 2017, published 2020).

CC(C)Cn1cnc2c(N)nc3ccccc3c21 [imiqimod (R837), imiquimod]
solubility in organic solvents: not dissolved in most organic solvents except for DMSO
